{"source": "patent US20140066462A1", "about": "“TREATMENT OF POLYCYSTIC DISEASE” (Intellikine LLC, priority 2011, published 2014)", "key": {"[1]": {"target": "mTOR kinase domain (Homo sapiens, UniProt P42345)", "sequence (P42345 2156-2469 limits assumed, species assumed)": "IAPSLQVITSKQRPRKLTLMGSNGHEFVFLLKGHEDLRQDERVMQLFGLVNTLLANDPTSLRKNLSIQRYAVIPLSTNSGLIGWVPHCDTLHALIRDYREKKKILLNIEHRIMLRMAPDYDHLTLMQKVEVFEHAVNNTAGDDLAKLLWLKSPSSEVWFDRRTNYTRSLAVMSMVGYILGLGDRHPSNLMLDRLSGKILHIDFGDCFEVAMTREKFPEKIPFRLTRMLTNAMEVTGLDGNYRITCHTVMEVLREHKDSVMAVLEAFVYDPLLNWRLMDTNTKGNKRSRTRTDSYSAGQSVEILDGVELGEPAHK", "assay": "in vitro mTOR kinase assay (γ-32P-ATP, purified kinase domain)", "type": "biochemical", "details": "10 μM ATP", "experimental": "Purified mTOR kinase domain was incubated with inhibitors at 2- or 4-fold dilutions over a concentration range of 50-0.001 μM or with vehicle (0.1% DMSO) in the presence of 10 μM ATP, 2.5 μCi of γ-32P-ATP and substrate. Reactions were terminated by spotting onto nitrocellulose or phosphocellulose membranes, depending on the substrate; this membrane was then washed 5-6 times to remove unbound radioactivity and dried. Transferred radioactivity was quantified by phosphorimaging and IC50 values were calculated by fitting the data to a sigmoidal dose-response using Prism software."}, "[2]": {"system": "PI3K (α, β, γ, and δ)", "assay": "selectivity of kinase inhibition, mTOR versus PI3K", "type": "biochemical", "details": "selectivity mTOR over PI3K α"}, "[3]": {"system": "cellular proliferation", "assay": "inhibition of cellular proliferation", "type": "cell-based"}, "[4]": {"system": "mTOR1/2 signaling", "assay": "Western blot of kidney crude lysates of treated PKD(V/V) mice", "type": "in vivo", "details": "0.5 mg/kg p.o., kidney lysates 2 hours later", "experimental": "(§1) In order to study mechanisms of selective intervention for treating PKD, PKD(V/V) (“V/V”) mice were used. V/V mice are an animal model of PKD which are homozygous for a mutation in PKD 1 (the gene implicated in 85% of PKD). (Yu S, et al. Proc. Natl. Acad. Sci. U.S.A. 2007; 104: 18688-18693.) These mice develop severe PKD rapidly during the postnatal period. P11 V/V mice were treated with Compound A (0.5 mg/kg; “+”) or vehicle (“−”) p.o. Animals were sacrificed 2 hours later and kidney crude lysates were prepared and subjected to Western blot analysis.\nWhole kidneys were isolated from mice and immediately flash frozen. Tissues were ground using a mortar and pestle under a blanket of liquid nitrogen followed by homogenization in lysis buffer. Supernatants were loaded in gels and proteins were separated via electrophoresis. Primary antibodies were used to assess the following proteins: p-Akt (S473), p-Akt (T308), total-Akt, p-4E-BP1, total-4E-BP1, p-S6 ribosomal protein, and total-S6 ribosomal protein."}, "[5]": {"system": "PKD(V/V) mice", "assay": "body and kidney mass in PKD(V/V) mice treated P5-P11", "type": "in vivo", "experimental": "as §1\n(§2) To examine Compound A effects on kidney size in V/V mice, V/V mice were treated from P5-P11 with either vehicle or Compound A. Compound A dosing was 0.25 mg/kg on P5/P6, then 0.25 mg/kg bid on P7/P8, then 0.5 mg/kg bid on P9-11. Animals were sacrificed 2 hours after […] dose; kidneys were weighed, and one kidney was subjected to western blot and one to sectioning for histology."}, "[6]": {"system": "PKD(V/V) mice", "assay": "kidney histology (H&E sections) in PKD(V/V) mice treated P5-P11", "type": "in vivo", "details": "P5-P11 dosing", "experimental": "as §2\nSagittal sections of the left kidney from mice treated with vehicle or Compound A were fixed, embedded in paraffin, and sectioned for histological analysis as described in Piontek K B, et. al, (2004) J Am Soc Nephrol 15:3035-33043. Sections were stained with H&E at observed with a microscope at 4×, […], 20×, and 40× magnification. (FIGS. 6-9) Cyst volume was lower and parenchyma was increased in Compound A-treated mice, quantitated using ImageJ software. The number of glomeruli was increased in the Compound A treated section as compared to the vehicle treated section. […] (FIG. 9)"}, "[7]": {"details": "left kidney sagittal sections, ImageJ"}}}
{"smiles": "CC(C)(CO)n1nc(-c2ccc3oc(N)nc3c2)c2c(N)ncnc21", "note": "[Compound A]", "values": [{"measurement": "IC50", "setting": "[1]", "value": "< 100", "unit": "nM"}, {"measurement": "more effective in inhibiting mTOR activity than that of PI3K (α, β, γ, and δ)", "setting": "[2]", "value": "over 1000 ×"}, {"measurement": "IC50", "setting": "[3]", "value": "10 to 100", "unit": "nM"}, {"measurement": "Baseline phosphorylation of S6 in wt and mutant mice", "setting": "[4]", "value": "markedly attenuated"}, {"measurement": "S6-RP expression", "setting": "[4]", "value": "relatively unaffected"}, {"measurement": "Akt S473 and T308 phosphorylation", "setting": "[4]; P11 V/V mice", "value": "moderately attenuated"}, {"measurement": "Total Akt", "setting": "[4]; P11 V/V mice", "value": "unaffected"}, {"measurement": "p4E-BP1 in mutant mice", "setting": "[4]; P11 V/V mice", "value": "markedly inhibited"}, {"measurement": "pS6-RP in mutant mice", "setting": "[4]; P11 V/V mice", "value": "markedly inhibited"}, {"measurement": "Baseline phosphorylation and expression of 4E-BP1 in wt mice", "setting": "[4]; wt mice", "value": "markedly attenuated"}, {"measurement": "kidney mass in Het/WT", "setting": "[5]; Het/WT mice, P5-P11 dosing, p=0.22", "value": "not significantly changed"}, {"measurement": "normalized kidney mass in Het/WT mice", "setting": "[5]; Het/WT mice, P5-P11 dosing, p=0.5", "value": "no significant effect"}, {"measurement": "Body mass in mutant and in Het/WT mice", "setting": "[5]; P5-P11, 0.25 mg/kg P5/P6, 0.25 mg/kg bid P7/P8, 0.5 mg/kg bid P9-11, p<0.05", "value": "decreased"}, {"measurement": "Average kidney mass, compared to vehicle treated mutants", "setting": "[5]; V/V mutants, P5-P11 dosing, p=0.007", "value": "significantly lower"}, {"measurement": "Normalized kidney mass (combined kidney weight/body weight), compared with vehicle-treated mutants", "setting": "[5]; V/V mutants, P5-P11 dosing, p=0.01", "value": "significantly lower"}, {"measurement": "number of glomeruli, compared to the vehicle treated section", "setting": "[6]; 20× magnification", "value": "increased"}, {"measurement": "appearance of the glomeruli, compared to the untreated kidney", "setting": "[6]; 40× magnification", "value": "appeared normal"}, {"measurement": "Cyst volume", "setting": "[6]; [7]", "value": "lower"}, {"measurement": "parenchyma", "setting": "[6]; [7]", "value": "increased"}]}
{"smiles": "CC(CO)n1nc(-c2ccc3oc(N)nc3c2)c2c(N)ncnc21", "note": "(stereo not drawn) [Compound B]", "values": [{"measurement": "IC50", "setting": "[1]", "value": "< 100", "unit": "nM"}]}
{"smiles": "CC(=O)Nc1nc2cc(-c3nn(C(C)C)c4ncnc(N)c34)ccc2o1", "note": "[Compound D]", "values": [{"measurement": "IC50", "setting": "[1]", "value": "< 100", "unit": "nM"}]}
